Results as given in patent publication US20080269286A1, “Disubstituted Phenylpiperidines as Modulators of Cortical Catecholaminergic Neurotransmission” (priority 2005, published 2008).
Structures can show the parent of a compound that is named as a salt.

tested on: DOPAC levels (3,4-dihydroxyphenylacetic acid) in the rat striatum; assay: In vivo test: neurochemistry, tissue content of DOPAC in the striatum; details: sc, 1 h, 100 μmol/kg s.c., 60 minutes after administration, %-increase from control value
Experimental: In short, male Sprague-Dawely rats are administered the test compound 60 minutes prior to decapitation. The brain is rapidly taken out and dissected. The striatum is rapidly frozen and subsequently quantitatively analysed with respect to its content of DOPAC by means of HPLC and electrochemical detection. The number of animals used for each test compound/vehicle is 4/group.
Male Sprague-Dawley rats weighing 220-320 g are used throughout the experiments. Sixty (60) minutes following administration of the test substance, the rats are decapitated. Directly after decapitation the brain is removed from the skull and put on a glass petri bowl filled with ice. The limbic system (containing the nucleus accumbens—both the core and shell, most parts of the olfactory tubercle and ventral pallidum) is dissected using two thin, angled tweezers and put directly on foil on dry ice (carbon dioxide −78° C.). The striatum and cortex are then dissected and also put on dry ice. The time from decapitation until the last tissue is dissected varies from four to six minutes. The tissue is weighed using a Sartorius BP3105 connected to a computer and packed in labelled tin foil, then stored in an −80° C. freezer. Great care is taken in order to keep the tissue frozen until the time of neurochemical analysis. Each brain part is subsequently analyzed with respect to its content of monoamines and their metabolites.
The monoamine transmitter substances (NE (norepinephrine), DA (dopamine), 5-HT (serotonin)) as well as their amine (NM (normethanephrine), 3-MT (3-methoxytyramine)) and acid (DOPAC (3,4-dihydroxyphenylacetic acid), 5-HIAA (5-hydroxyindoleacetic acid), HVA (homovanillic acid)) metabolites are quantified in brain tissue homogenates by HPLC separations and electrochemical detection.
The analytical method is based on two chromatographic separations dedicated for amines or acids. Two chromatographic systems share a common auto injector with a 10-port valve and two sample loops for simultaneous injection on the two systems. Both systems are equipped with a reverse phase column (Luna C18(2), dp 3 μm, 50*2 mm i.d., Phenomenex) and electrochemical detection is accomplished at two potentials on glassy carbon electrodes (MF-1000. Bioanalytical Systems, Inc.). The column effluent is passed via a T-connection to the detection cell or to a waste outlet. This is accomplished by two solenoid valves, which block either the waste or detector outlet. By preventing the chromatographic front from reaching the detector, better detection conditions are achieved. […] Detection potentials relative to Ag/AgCl reference are 0.45 and 0.60V. […] Detection potentials relative to Ag/AgCl reference are 0.45 and 0.65V.

Row | Compound | change in vivo at 100 µmol/kg [%]
1 | Fc1ccc(C2CCNCC2)cc1C(F)F | 17
2 | Fc1ccc(C2CCNCC2)c(F)c1 [drawing 13] | -36
3 | Fc1cc(F)cc(C2CCNCC2)c1 [drawing 15] | -19
4 | Clc1ccc(C2CCNCC2)cc1Cl [drawing 16] | -14
5 | Fc1ccc(C2CCNCC2)cc1Cl [drawing 17] | -29
6 | Fc1cc(Cl)cc(C2CCNCC2)c1 [drawing 18] | -26
7 | CN1CCC(c2ccc(F)cc2F)CC1 [drawing 19] | -41
8 | CCCN1CCC(c2ccc(Cl)c(C(F)(F)F)c2)CC1 [reference compound] | 94
9 | CCCN1CCC(c2ccc(F)c(C(F)(F)F)c2)CC1 [reference compound] | 94
10 | CCCN1CCC(c2cc(F)cc(C(F)(F)F)c2)CC1 [reference compound] | 239
11 | CCN1CCC(c2cc(F)cc(C(F)(F)F)c2)CC1 [reference compound] | 232
12 | CCN1CCC(c2ccc(F)c(C(F)(F)F)c2)CC1 [reference compound] | 75
13 | CCCN1CCC(c2cccc(S(C)(=O)=O)c2)CC1 [reference compound] | 114

tested on: extracellular levels of dopamine and norepinephrine; assay: In vivo test: microdialysis, extracellular monoamines in striatum and prefrontal cortex; design: species or system rat; details: 50 μmol/kg s.c.; pf. cortex; awake and freely moving rats; FIGS. 11-24
Excerpt: The microdialysis technique (Ungerstedt, Herrera-Marschitz et al. 1982) is a well established technique for measuring extracellular levels of neurotransmitters (Ungerstedt 1991). The microdialysis technique was used to measure the effect of drugs upon the monoamine transmitters. The appended graphs (FIGS. 9 and 10) show the effects of one established antidepressant (mirtazapine) upon monoamines in the striatum and frontal cortex, as well as for seven compounds claimed in the present invention (FIGS. 11-24; Examples 1, 3, 4, 6, 9, 10 and 11). The number of animals (n) used for each compound tested is noted in the figure legend.
Male Sprague-Dawley rats weighing 220-320 g were used throughout the experiments. Before the experiment the animals were group housed, five animals in each cage, with free access to water and food. The animals were housed at least one week after arrival prior to surgery and use in the experiments. Each rat was used only once for microdialysis. We use a modified version (Waters, Lofberg et al. 1994) of the I-shaped probe (Santiago and Westerink 1990). The dialysis membrane we use is the AN69 polyacrylonitrile/sodium methalylsulfonate copolymer (HOSPAL; o.d./i.d. 310/220 μm: Gambro, Lund, Sweden). In the dorsal striatum we use probes with an exposed length of 3 mm of dialysis membrane and in the prefrontal cortex the corresponding length is 2.5 mm. The rats were operated under isoflurane inhalation anesthesia while mounted into a Kopf stereotaxic instrument. Coordinates were calculated relative to bregma; dorsal striatum AP+1, ML±2.6, DV−6.3; Pf cortex, AP+3.2, 8° ML±1.2, DV−4.0 according to (Paxinos and Watson 1986). The dialysis probe was positioned in a burr hole under stereotaxic guidance and cemented with phosphatine dental cement.
The rats were housed individually in cages for 48 h before the dialysis experiments, allowing them to recover from surgery and minimizing the risk of drug interactions with the anaesthetic during the following experiments. During this period the rats had free access to food and water. On the day of experiment the rats were connected to a micro perfusion pump via a swivel and were replaced in the cage where they could move freely within its confinements. The perfusion medium was a Ringer's solution containing in mmol/l: NaCl; 140, CaCl2; 1.2, KCl; 3.0, MgCl2; 1.0 and ascorbic acid; 0.04 according to (Moghaddam and Bunney 1989). The pump was set to a perfusion speed of 2 μl/min and 40 μl samples were collected every 20 min.
30 μl of each sample was injected into the chromatograph. On a 10-port injector (Valco C10W), with two sample loops mounted in series (2 μl and 20 μl), each brain dialysate sample is loaded in both loops simultaneously. When the valve is switched to inject the main part of the 20 μl sample is introduced into a reverse-phase ion-pairing system for dopamine (DA), norepinephrine (NE), normetanephrine (NM), 3-methoxytyramine (3-MT) and serotonin (5-hydroxytryptamine, 5-HT) determination (large loop), while a small fraction (2 μl, from the small loop) is introduced on a reverse-phase column for the chromatography of the acidic monoamine metabolites 3,4-di-hydroxyphenylacetic acid (DOPAC), homovanillic acid (HVA) and 5-hydroxyindoleacetic acid (5-HIAA). The currents generated by the two EC detectors are converted to digital data and evaluated using Chromelion software (Dionex, Sunnyvale, Calif.) on a PC. The method sample turn over time was 4.5 min and two parallel experiments are normally analysed simultaneously on the system. After the experiment the rats were uncoupled from the perfusion pump and decapitated. Their brains were rapidly taken out and fixed in Neo-fix solution (Kebo-lab, Sweden) for subsequent inspection of probe localisation. The Animal Ethics Committee in Göteborg, Sweden approved the procedures applied in these experiments. • Moghaddam, B. and B. S. Bunney (1989). […]

Row | Compound | levels of dopamine and norepinephrine in the cortex (microdialysis)
14 | Fc1ccc(C2CCNCC2)c(F)c1 [Example 1, 4-(2,4-DIFLUOROPHENYL)PIPERIDINE] | elevate the levels of dopamine and norepinephrine in the cortex
15 | Fc1cc(F)cc(C2CCNCC2)c1 [Example 3, 4-(3,5-DIFLUOROPHENYL)PIPERIDINE] | elevate the levels of dopamine and norepinephrine in the cortex
16 | Fc1ccc(C2CCNCC2)cc1F [Example 4, 4-(3,4-DIFLUOROPHENYL)PIPERIDINE] | elevate the levels of dopamine and norepinephrine in the cortex
17 | Clc1ccc(C2CCNCC2)cc1Cl [Example 6, 4-(3,4-DICHLOROPHENYL)PIPERIDINE] | elevate the levels of dopamine and norepinephrine in the cortex
18 | Fc1ccc(C2CCNCC2)cc1Cl [Example 9, 4-(3-CHLORO-4-FLUOROPHENYL)PIPERIDINE] | elevate the levels of dopamine and norepinephrine in the cortex
19 | Fc1cc(Cl)cc(C2CCNCC2)c1 [Example 10, 4-(3-CHLORO-5-FLUOROPHENYL)PIPERIDINE] | elevate the levels of dopamine and norepinephrine in the cortex
20 | CN1CCC(c2ccc(F)cc2F)CC1 [Example 11, 4-(2,4-DIFLUOROPHENYL)-1-METHYLPIPERIDINE] | elevate the levels of dopamine and norepinephrine in the cortex

same assay, conditions: 10 mg/kg s.c.; p.f. cortex; awake and freely moving rats; FIG. 10

Row | Compound | extracellular norepinephrine and dopamine in the cortex (microdialysis)
21 | CN1CCN2c3ncccc3Cc3ccccc3C2C1 (centres unmarked) [mirtazapine, reference compound] | increase predominantly extracellular norepinephrine and dopamine in the cortex

tested on: not given; assay: not given; details: not given

Row | Compound | melting point [°C]
22 | Fc1cc(F)cc(C2CCNCC2)c1 (as salt: fumaric acid salt) [Example 3, 4-(3,5-DIFLUOROPHENYL)PIPERIDINE] | 178
23 | Fc1ccc(C2CCNCC2)cc1C(F)(F)F (as salt: hydrochloric acid salt) | 195 to 196
24 | Fc1ccc(C2CCNCC2)c(F)c1 (as salt: hydrochloric acid salt) [Example 1, 4-(2,4-DIFLUOROPHENYL)PIPERIDINE] | 256 to 258
25 | Fc1ccc(C2CCNCC2)cc1F (as salt: hydrochloric acid salt) [Example 4, 4-(3,4-DIFLUOROPHENYL)PIPERIDINE] | 255 to 256
26 | Clc1ccc(C2CCNCC2)cc1Cl (as salt: hydrochloric acid salt) [Example 6, 4-(3,4-DICHLOROPHENYL)PIPERIDINE] | 170
27 | Fc1cc(Cl)cc(C2CCNCC2)c1 (as salt: hydrochloric acid salt) [Example 10, 4-(3-CHLORO-5-FLUOROPHENYL)PIPERIDINE] | 243
28 | CN1CCC(c2ccc(F)cc2F)CC1 (as salt: hydrochloric acid salt) [Example 11, 4-(2,4-DIFLUOROPHENYL)-1-METHYLPIPERIDINE] | 198
29 | Fc1ccc(C2CCNCC2)cc1Cl (as salt: oxalic acid salt) [Example 9, 4-(3-CHLORO-4-FLUOROPHENYL)PIPERIDINE] | 147
